Test results taken from the supplement of paper PMC11208160.

Assay: recombinant UMI read abundance after kanamycin selection (control-corrected) (log10(CPM+1)); higher = more efficient recombination; extreme values may be limits of the assay; sequences stand for … in AGTGCAGAGAAAATCGGCCAGTTTTCTCTGCCTGCAGTCCGCATGCCGTGGGACCCCTTGGGTTCTAACCTGTTGCCTAGATTTATGCAGCGGACTGCCTTTCTCCCAAAGTGATAAACCGG…AGGTTGGTTTCACT; site = the 11-nt donor
Procedure, shortened: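 Pooled Escherichia coli screen of donor and donor-binding-loop pairs for the IS621 bridge recombinase. Each pair sits with a 12-nt UMI on a plasmid carrying a promoterless kanamycin gene. The library was co-electroporated with a target plasmid encoding a fixed target and T7-inducible recombinase, then plated with IPTG (0.07 mM) plus kanamycin, or unselected, each in two replicates. Recombinant UMIs were PCR-amplified across the donor–target junction and sequenced. Counts became CPM, averaged over replicates, scaled by control-derived factors and reported as log10(CPM+1).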

Row | Sequence | recombinant UMI read abundance (log10)
1 | TGGCTGGCATGGACCGGTTTTCCCGGTAATCCGTATTTGGC (site TGGCTGGCTGC) | 1.33
2 | CAATTCCCATGGACCGGTTTTCCCGGTAATCCGTATTTGCT (site AAATTCCCTAG) | 0
3 | CCATTCTCATGGACCGGTTTTCCCGGTAATCCGTATTTGTA (site CCATTCTCTTA) | 0.451
4 | ACCGGAACATGGACCGGTTTTCCCGGTAATCCGTATTTGTG (site ACCGGAACTCA) | 1.41
5 | CTAGTATCATGGACCGGTTTTCCCGGTAATCCGTATTTGCA (site CTAGTATCTTG) | 2.72
6 | GTGCTGACATGGACCGGTTTTCCCGGTAATCCGTATTTGTT (site GTGCTGACTAA) | 0.314
7 | CTAGTATCATGGACCGGTTTTCCCGGTAATCCGTATTTGAC (site CTACTTTCTGT) | 0
8 | AGAAAGGCATGGACCGGTTTTCCCGGTAATCCGTATTTGCC (site AGAAAGGCTTG) | 1.79
9 | GAATAGCCATGGACCGGTTTTCCCGGTAATCCGTATTTGCA (site GAATGGCCTTG) | 0.0428
10 | GCCACGACATGGACCGGTTTTCCCGGTAATCCGTATTTGTA (site GCCACGACTTA) | 2.11
11 | CAATTCCCATGGACCGGTTTTCCCGGTAATCCGTATTTGCT (site CAACTCCCTAG) | 1.16
12 | GAATGGCCATGGACCGGTTTTCCCGGTAATCCGTATTTGTA (site GAATGGCCTTC) | 0.0097
13 | GTAATCTCATGGACCGGTTTTCCCGGTAATCCGTATTTGAC (site GTAATCTCTGT) | 2.51
14 | CTAGTGTCATGGACCGGTTTTCCCGGTAATCCGTATTTGAC (site CTAGTATCTGT) | 1.23
15 | TTCCCTTCATGGACCGGTTTTCCCGGTAATCCGTATTTGCA (site TTCCCTTCTTG) | 0
16 | TACGCAACATGGACCGGTTTTCCCGGTAATCCGTATTTGAC (site TACGCAACTGT) | 2
17 | CAAGTATCATGGACCGGTTTTCCCGGTAATCCGTATTTGAC (site CTAGTATCTGT) | 2.04
18 | CGCTCCTCATGGACCGGTTTTCCCGGTAATCCGTATTTGCA (site CGCTCCTCTTG) | 2.84
19 | CGTACGTCATGGACCGGTTTTCCCGGTAATCCGTATTTGTT (site GGTACGTCTAA) | 0.0115

Row | Sequence | recombinant UMI read abundance (log10)
20 | CTAGTATCATGGACCGGTTTTCCCGGTAATCCGTATTTGAC (site CTAGAATCTGA) | 0
21 | TCTTGCCCATGGACCGGTTTTCCCGGTAATCCGTATTTGAT (site GCTTGCCCTAT) | 0.00287
22 | CACGGCGCATGGACCGGTTTTCCCGGTAATCCGTATTTGTT (site CACGGCACTAA) | 1.5
23 | GTATGCACATGGACCGGTTTTCCCGGTAATCCGTATTTGTC (site GTATGCACTTA) | 1.33
24 | AATGTAACATGGACCGGTTTTCCCGGTAATCCGTATTTGAT (site AATGTAACTAC) | 0.00741
25 | CGAGGGCCATGGACCGGTTTTCCCGGTAATCCGTATTTGCA (site CGAGGGCCTTG) | 0.708
26 | CACGCGCCATGGACCGGTTTTCCCGGTAATCCGTATTTGTG (site CAAGCGCCTCA) | 0.00364
27 | AGGAGGACATGGACCGGTTTTCCCGGTAATCCGTATTTGAA (site AGGAGGACTTT) | 2.19
28 | ATCAGACCATGGACCGGTTTTCCCGGTAATCCGTATTTGCA (site ATCAGACCTTG) | 0
29 | CCTAAAGCATGGACCGGTTTTCCCGGTAATCCGTATTTGAT (site CGTAAAGCTAT) | 0
30 | GCGAAGCCATGGACCGGTTTTCCCGGTAATCCGTATTTGAG (site GCGAAGCCTCA) | 0.0311
31 | GTTGTTCCATGGACCGGTTTTCCCGGTAATCCGTATTTGGT (site ATTGTTCCTAC) | 0.0121
32 | TACTTGACATGGACCGGTTTTCCCGGTAATCCGTATTTGCT (site TGCTTGACTAG) | 0.0612
33 | CGGGACGCATGGACCGGTTTTCCCGGTAATCCGTATTTGTA (site CGGGACGCTTA) | 2.82
34 | GCTTGGCCATGGACCGGTTTTCCCGGTAATCCGTATTTGAT (site GCTTGCCCTAT) | 0.00795
35 | CTGTGCGCATGGACCGGTTTTCCCGGTAATCCGTATTTGAC (site TCCCTGTCTTC) | 0.0087
36 | CGCTACTCATGGACCGGTTTTCCCGGTAATCCGTATTTGCT (site CGCTACTCTAG) | 2.85
37 | TGCCCCGCATGGACCGGTTTTCCCGGTAATCCGTATTTGTT (site TGCCCCGCTAA) | 0.0107
38 | TACTTGTCATGGACCGGTTTTCCCGGTAATCCGTATTTGCT (site TACTTGCCTAG) | 0.649

Row | Sequence | recombinant UMI read abundance (log10)
39 | CGTTCGTCATGGACCGGTTTTCCCGGTAATCCGTATTTGCT (site CGTTCGTCTAG) | 1.95
40 | CCACTATCATGGACCGGTTTTCCCGGTAATCCGTATTTGAC (site CTAGTATCTGT) | 0
41 | CTGGAAACATGGACCGGTTTTCCCGGTAATCCGTATTTGCC (site CTGGAAACTAG) | 0
42 | TCCTTACCATGGACCGGTTTTCCCGGTAATCCGTATTTGGA (site TCCTTACCTTC) | 0.00485
43 | CTTGAAACATGGACCGGTTTTCCCGGTAATCCGTATTTGCA (site CTTGAAACTTG) | 2.07
44 | CGAGCTTCATGGACCGGTTTTCCCGGTAATCCGTATTTGAA (site CGAGCTTCTTT) | 1.88
45 | CTAGTATCATGGACCGGTTTTCCCGGTAATCCGTATTTGAC (site CTAATATCTGT) | 1.63
46 | CGGGTGTCATGGACCGGTTTTCCCGGTAATCCGTATTTGCC (site CGGGTGTCTGG) | 2.69
47 | TGTCCCCCATGGACCGGTTTTCCCGGTAATCCGTATTTGTA (site TGTCCCCCTTA) | 0.0699
48 | GCGAAGCCATGGACCGGTTTTCCCGGTAATCCGTATTTGGG (site GCGAACCCTCC) | 0
49 | TGATACTCATGGACCGGTTTTCCCGGTAATCCGTATTTGCA (site TTATACTCTTG) | 1.96
50 | ATCTATACATGGACCGGTTTTCCCGGTAATCCGTATTTGAA (site ATCTATACTCT) | 0.0128
51 | CTGGTTACATGGACCGGTTTTCCCGGTAATCCGTATTTGGC (site CTGGTTACTGC) | 1.74
52 | ACAGGTGCATGGACCGGTTTTCCCGGTAATCCGTATTTGAT (site ACAGGTGCTAT) | 2.2
53 | CCCTTCACATGGACCGGTTTTCCCGGTAATCCGTATTTGGG (site CCCTTCGCTCC) | 0.0224
54 | ATCAAAGCATGGACCGGTTTTCCCGGTAATCCGTATTTGAG (site ATCCAAGCTCT) | 0.889
55 | TACTTGACATGGACCGGTTTTCCCGGTAATCCGTATTTGCT (site TACTTGGCTAG) | 0.00865
56 | TCGCCATCATGGACCGGTTTTCCCGGTAATCCGTATTTGTT (site TCGCCATCTAA) | 0.0036
57 | GCTCCAACATGGACCGGTTTTCCCGGTAATCCGTATTTGTA (site GGTCCAACTTA) | 0.0155
